In patent US20220347308A1, “METHODS AND MEANS FOR INDUCING AN IMMUNE RESPONSE” (BIONTECH AG, priority 2015, published 2022):

Test system: interferon-alpha
Experiment: Sensitization by a first danger signal to a subsequent Protamine-RNA injection, serum interferon-alpha (ELISA)
Format: in vivo, mice
Details: first injection: 50 micrograms CpG, 10 micrograms imiquimod, 2 micrograms dsRNA or 10 micrograms RNA in particles, then 10 micrograms RNA in Protamine particles, sera 3 h after second injection, vs single Protamine-RNA injection
Procedure: The DNA oligonucleotide “CpG 1585” (invivogen) which is a mouse TLR9 agonist was diluted at 0.5 micrograms per microlitre in PBS. Imiquimod (invivogen) was diluted to 0.1 microgram per microliter in PBS. RNA (mRNA coding for firefly luciferase) and Protamine were diluted to 0.5 mg/ml using pure water. Hundred micrograms RNA (200 microliters) were mixed with hundred micrograms Protamine IPEX (200 microliters) thereby generating approximately 100 nm particles. Forty percent Glucose was added to reach 5% glucose final and 5% Glucose was added so that the final injectable solution contains 10 micrograms RNA (and 10 micrograms Protamine) in 70 microliters.
Mice were injected intravenous with 100 microliters of CpG (50 micrograms DNA “CpG(2h)PR11”) or 100 microliters of imiquimod (10 micrograms Imiquimod “Imi(2h)PR11”) or 70 microliters of Protamine-RNA particles (10 micrograms RNA “PR11(2h)PR11”) and 2 hours later all received 70 microliters of Protamine-RNA (10 micrograms RNA) intravenous. Three mice per group. Sera were drawn 3 hours after this second injection. As controls, mice were injected intravenous with 100 microliters of CpG (50 micrograms “CpG alone”) or 100 microliters of imiquimod (10 micrograms “Imi alone”) or 70 microliters of Protamine-RNA particles (10 micrograms RNA “PR11 alone”). Three mice per group. […] Interferon-alpha was measured in sera using Verikine™ ELISA kit from PBL. […]

CC(C)Cn1cnc2c(N)nc3ccccc3c21 [Imiquimod]
interferon-alpha in serum when given i.v. as first injection 2 h before Protamine-RNA particles: can sensitize the immune system to produce an enhanced amount of interferon-alpha | interferon-alpha in serum when given i.v. as first injection 2 h before Protamine-RNA particles (listed as imiquimod): strong (synergistic) interferon production
